Values quoted from earlier work in PubChem BioAssay AID1259409 (Chemical Carcinogenesis Research Information System (CCRIS), 2018).
“And” between values parts separate entries of the source, which are not always exact repeats. Equal values may be shown once.

System: rodent chemically induced tumor inhibition, incidence and multiplicity
Experiment: CCRIS tumor inhibitor studies
Settings: 3817-11-6, Dose [Inhibitor]: 0, Promoter: NONE USED

For `CC[C@H](C)[C@@H](NC(=O)[C@@H](CCC(=O)O)NC(=O)[C@@H](CO)NC(=O)[C@@H](CO)NC(=O)[C@H](NC(=O)[C@@H](CC(=O)O)NC(=O)[C@H](NC(=O)[C@H](C)NC(=O)[C@H](C)NC(=O)[C@@H](CC(=O)O)NC(=O)[C@@H](CO)NC(=O)[C@H](N)CS)C(C)C)C(C)C)C(=O)N[C@@H](C(=O)N[C@@H](C(=O)N[C@H](CCCCN)C(=O)N[C@H](CC(=O)O)C(=O)N[C@H](CC(C)C)C(=O)N[C@H](CCCCN)C(=O)N[C@H](CCC(=O)O)C(=O)N[C@H](CCCCN)C(=O)N[C@H](CCCCN)C(=O)N[C@H](CCC(=O)O)C(=O)N[C@@H](C(=O)N[C@@H](C(=O)N[C@H](CCC(=O)O)C(=O)N[C@H](CCC(=O)O)C(=O)N[C@@H](C)C(=O)N[C@H](CCC(=O)O)C(=O)O)C(C)C)C(C)C)C(C)C)[C@H](C)O`, the “tumour outcome (control, treated, inhibition, significance)” value (Carcinogen: N-BUTYL-N-(4-HYDROXYBUTYL)NITROSAMINE, 30 UG THYMOSIN FRACTION 5 IN 100 µL SALINE INJECTED INTO RIGHT THIGH 2/WK FOR 20 WK (STUDY DURATION: 20 WK), Route [Inhibitor]: INTRAMUSCULAR, Species: MOUSE, Strain/Sex: C3H/HEJ/FEMALE, Target Tissue: Type of Lesion: BLADDER: CARCINOMA, Dose [Carcinogen]: 0.05% (W/V) SOLUTION IN DRINKING WATER WITH 0.001% (W/V) TWEEN 80 FOR 20 WK) is given as 6/11 (55%), 2/11 (18%), 67%, not significant, the “tumour outcome (control, treated, inhibition, significance)” value (Carcinogen: N-BUTYL-N-(4-HYDROXYBUTYL)NITROSAMINE, 30 UG THYMOSIN FRACTION 5 IN 100 µL SALINE INJECTED INTO RIGHT THIGH 2/WK FOR 25 WK (STUDY DURATION: 25 WK), Route [Inhibitor]: INTRAMUSCULAR, Species: MOUSE, Strain/Sex: C3H/HEJ/FEMALE, Target Tissue: Type of Lesion: BLADDER: CARCINOMA, Dose [Carcinogen]: 0.05% (W/V) SOLUTION IN DRINKING WATER WITH 0.001% (W/V) TWEEN 80 FOR 25 WK) is given as 9/16 (56%), 8/13 (62%), -11%, not significant and the “tumour outcome (control, treated, inhibition, significance)” value (Carcinogen: N-BUTYL-N-(4-HYDROXYBUTYL)NITROSAMINE, 600 UG THYMOSIN FRACTION 5 2/WK FOR 12 WK BEGINNING POST CARCINOGEN TREATMENT (STUDY DURATION: 20 WK), Route [Inhibitor]: SUBCUTANEOUS, Species: MOUSE, Strain/Sex: NON/SHI/MALE, Target Tissue: Type of Lesion: RENAL PELVIS: CARCINOMA, Dose [Carcinogen]: 0.05% IN DRINKING WATER FOR 8 WK) is given as 3/31 (10%), 5/32 (16%), -60%, not significant and 7/29 (24%), 7/29 (24%), 0%, not significant. For the same compound, the “tumour outcome (control, treated, inhibition, significance)” value (Carcinogen: N-BUTYL-N-(4-HYDROXYBUTYL)NITROSAMINE, 600 UG THYMOSIN FRACTION 5 2/WK FOR 12 WK BEGINNING POST CARCINOGEN TREATMENT (STUDY DURATION: 20 WK), Route [Inhibitor]: SUBCUTANEOUS, Species: MOUSE, Strain/Sex: NON/SHI/MALE, Target Tissue: Type of Lesion: URINARY BLADDER: CARCINOMA, Dose [Carcinogen]: 0.05% IN DRINKING WATER FOR 8 WK) was 25/31 (81%), 15/32 (47%), 42%, p<0.01 and 19/29 (66%), 23/29 (79%), -20%, not significant, the “tumour outcome (control, treated, inhibition, significance)” value (Carcinogen: N-BUTYL-N-(4-HYDROXYBUTYL)NITROSAMINE, 600 UG THYMOSIN FRACTION 5 IN 100 µL SALINE INJECTED INTO RIGHT THIGH 2/WK FOR 30 WK (STUDY DURATION: 30 WK), Route [Inhibitor]: INTRAMUSCULAR, Species: RAT, Strain/Sex: WISTAR/FEMALE, Target Tissue: Type of Lesion: BLADDER: CARCINOMA, Dose [Carcinogen]: 0.025% (W/V) SOLUTION IN DRINKING WATER WITH 0.0005% (W/V) TWEEN 80 FOR 30 WK) was 9/11 (82%), 2/11 (18%), 78%, p<0.05 and the “tumour outcome (control, treated, inhibition, significance)” value (Carcinogen: PHENACETIN, 62-44-2, N-BUTYL-N-(4-HYDROXYBUTYL)NITROSAMINE, Carcinogen: PHENACETIN, 62-44-2, N-BUTYL-N-(4-HYDROXYBUTYL)NITROSAMINE, 60 UG IN 0.1 ML SALINE 2/WK FOR 6 WK CONCURRENTLY WITH BBN TREATMENT (STUDY DURATION: 30 WK), Route [Inhibitor]: SUBCUTANEOUS, Species: MOUSE, Strain/Sex: NON/SHI/MALE, Target Tissue: Type of Lesion: RENAL PELVIS: CARCINOMA, Dose [Carcinogen]: 2% PHENACETIN IN DIET FOR 8 WK FOLLOWED BY 0.05% BBN IN DRINKING WATER FOR 6 WK) was 2/11 (18%), 5/11 (45%), -150%, not significant. The “tumour outcome (control, treated, inhibition, significance)” value (Carcinogen: PHENACETIN, 62-44-2, N-BUTYL-N-(4-HYDROXYBUTYL)NITROSAMINE, Carcinogen: PHENACETIN, 62-44-2, N-BUTYL-N-(4-HYDROXYBUTYL)NITROSAMINE, 60 UG IN 0.1 ML SALINE 2/WK FOR 6 WK CONCURRENTLY WITH BBN TREATMENT (STUDY DURATION: 30 WK), Route [Inhibitor]: SUBCUTANEOUS, Species: MOUSE, Strain/Sex: NON/SHI/MALE, Target Tissue: Type of Lesion: URINARY BLADDER: CARCINOMA, Dose [Carcinogen]: 2% PHENACETIN IN DIET FOR 8 WK FOLLOWED BY 0.05% BBN IN DRINKING WATER FOR 6 WK) was 2/11 (18%), 2/11 (18%), 0%, not significant and the “tumour outcome (control, treated, inhibition, significance)” value (Carcinogen: PHENACETIN, 62-44-2, N-BUTYL-N-(4-HYDROXYBUTYL)NITROSAMINE, Carcinogen: PHENACETIN, 62-44-2, N-BUTYL-N-(4-HYDROXYBUTYL)NITROSAMINE, 60 UG IN 0.1 ML SALINE 2/WK FOR 6 WK CONCURRENTLY WITH BBN TREATMENT (STUDY DURATION: 34 WK), Route [Inhibitor]: SUBCUTANEOUS, Species: MOUSE, Strain/Sex: NON/SHI/MALE, Target Tissue: Type of Lesion: RENAL PELVIS: CARCINOMA, Dose [Carcinogen]: 2% PHENACETIN IN DIET FOR 12 WK FOLLOWED BY 0.05% BBN IN DRINKING WATER FOR 6 WK) was 9/20 (45%), 12/19 (63%), -40%, not significant.
